# Experimental data: patent US12161722B2, “Bifunctional heterocyclic compound having BTK degradation function via ubiquitin proteasome pathway, and use thereof” (KOREA RESEARCH INSTITUTE OF CHEMICAL TECHNOLOGY, priority 2021, dated 2024)
# Biological target: T1, WT BTK protein (Homo sapiens, UniProt Q06187)
# T1 construct: measured for intracellular BTK protein levels by Western blotting; endogenous in cells; host or cells: TMD-8 or RAMOS cells
# Assay: BTK protein degradation assay (Western blotting), WT BTK
# Assay type: cell-based
# Details: concentration range accounting for 50% degradation of WT BTK protein, TMD-8 or RAMOS cells, 24 hours
# Procedure: TMD-8, RAMOS, or 293T BTK MUT (C481S) cells were treated with the synthesized compounds and measured for intracellular BTK protein levels by Western blotting. The protocol of the experiment using TMD-8 cells is as follows.
# TMD-8 cells were resuspended in an RPMI1640 medium (Hyclone, SH30027.01, 10% FBS (Hyclone, SV30207.02), 1% penicillin-streptomycin (Welgene, LS 202-02) and the cell suspension was seeded at a density of 1×10^6 cells/mL in an amount of 1 mL per well into 12-well plates.
# The 12-well plates were treated as follows. A 10 mM stock was 1/10 diluted in series with DMSO ([…]) to form final concentrations of 10, 1, 0.1, 0.01, 0.001, and 0.0001 mM. The compounds with such concentrations were applied to cells, followed by harvesting the cells 24 hours later. For a negative control, a 1/10 dilution of DMSO in the medium (3 mL DMSO+27 mL medium) was used.
# The 1-mL cell culture in each well was passed many times through a pipette and then transferred into a 1.5-mL microtube before centrifugation (500 g, 5 min, 4° C.). The supernatant was discarded and the cell pellet was washed with PBS. After centrifugation (500 g, 5 min, 4° C.) again, the supernatant was discarded and the cell pellet was taken.
# A lysis buffer was prepared as follows. RIPA buffer (Biosesang, RC2038-050-00)+0.5 mM PMSF (SIGMA, P7626)+1×Protease/Phosphatase Inhibitor (Cell signaling, 5872S) was added in an amount […] per well and left for 30 minutes on ice (vortexing at 0 and 30 minutes) before sonication (5 cycles of pulse for 10 seconds and rest for 30 seconds, 70% amplification). The supernatant obtained by centrifugation (15000 g, 15 min, 4° C.) was transferred into a new microtube. Cells in each well of 96-well plates were 1/2 diluted with the RIPA buffer and incubated at 37° C. for 30 minutes with […] of a 50:1 mixture of BCA reagents A and B in BCA Protein Assay Kit (iNtRON, 21071). After being cooled for 10 minutes, the 96-well plates were measured for absorbance at 562 nm on the BioTek, SYNERGY H1 microplate reader. Samples were prepared by protein quantification based on the absorbance measurements and then boiled at 70° C. for 10 minutes. The sample buffer used in the case was prepared by mixing a NuPAGE or a Bolt 4× sample buffer (Invitrogen) and its 10× sample reducing agent depending on the gel to be used, and protein dilution was made in a RIPI buffer.
# The samples were loaded in the same amount into a NuPAGE or Bolt Bis-tris 4-12% gradient gel and allowed to run therein (200 V, 35 minutes). The separated proteins were transferred onto a […] NC membrane, using Trans-blot Turbo (BIO-RAD) (1.3 A constant, 25V limit, 15 minutes). The membrane was blocked at room temperature for 1 hour with skim milk or Intercept Blocking Buffer (LI-COR, 927-60001):0.1% TBST=1:1. The membrane was incubated with Anti BTK Rabbit (1:1,000 in 5% skim milk/0.2% TBST, size: 77 kDa, Cell signaling Technology) at 4° C. overnight O/N or at room temperature for 2 hours and with Anti GAPDH Rabbit (1:10,000 in 5% BSA/0.2% TBST, size: 36 kDa, GENETEX) and Anti β-actin mouse (1:10,000 in 5% BSA/0.2% TBST, RT, size: 43 kDa, GENETEX) at room temperature for 1 or 3 hours. Then, the membrane was washed three times with 0.5% TBST for 5 minutes each time before incubation with the second antibody Anti-Rabbit IgG (1:5,000 in 5% Skim milk/TBST, CST), IRDye® 800CW Goat anti-Rabbit IgG Secondary Antibody (1:10,000 in 5% skim/TBST, RT 45 min), or IRDye® 680RD Goat anti-Mouse IgG Secondary Antibody (1:10,000 in 5% skim/TBST, RT 45 min) for 45 minutes at room temperature in a rocker. The membrane was washed five times with 0.5% TBST for 5 minutes in each time, followed by detection with LI-COR, Odyssey. In this regard, the detection proceeded, as it was, for house-keeping genes while using SuperSignal West Pico PLUS Chemiluminescent Substrate or SuperSignal West femto Maximum Sensitivity Substrate for BTK detection. […]
# T1 sequence (Q06187 whole entry): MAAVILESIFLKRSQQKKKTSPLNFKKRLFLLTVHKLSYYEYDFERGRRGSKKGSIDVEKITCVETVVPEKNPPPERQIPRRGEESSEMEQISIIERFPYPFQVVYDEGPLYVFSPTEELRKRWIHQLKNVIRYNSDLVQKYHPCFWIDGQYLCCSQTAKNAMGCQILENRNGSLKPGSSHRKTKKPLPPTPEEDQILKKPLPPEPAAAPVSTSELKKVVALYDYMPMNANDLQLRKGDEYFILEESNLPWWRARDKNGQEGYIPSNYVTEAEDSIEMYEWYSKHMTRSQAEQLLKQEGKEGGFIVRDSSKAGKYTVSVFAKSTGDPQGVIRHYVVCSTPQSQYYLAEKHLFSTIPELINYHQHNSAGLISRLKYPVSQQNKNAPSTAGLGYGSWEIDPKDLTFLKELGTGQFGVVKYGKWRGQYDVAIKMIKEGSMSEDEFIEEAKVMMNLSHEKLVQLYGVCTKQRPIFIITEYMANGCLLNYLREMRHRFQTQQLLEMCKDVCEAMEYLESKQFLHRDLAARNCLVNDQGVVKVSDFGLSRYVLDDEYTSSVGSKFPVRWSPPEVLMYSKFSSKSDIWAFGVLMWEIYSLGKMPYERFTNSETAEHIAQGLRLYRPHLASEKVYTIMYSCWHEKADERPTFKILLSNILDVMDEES
row,Compound,DC50 [nM]
1,"Cc1cccc(C)c1Nc1nn(C)c2nc(Nc3ccc4c(c3)CN(C(=O)CNc3ccc5c(c3)C(=O)N(C3CCC(=O)NC3=O)C5=O)CC4)ncc12 (centres unmarked) [Compound 72, 5-((2-(7-((3-((2,6-Dimethylphenyl)amino)-1-methyl-1H-pyrazolo[3,4-d]pyrimidin-6-yl)amino)-3,4-dihydroisoquinolin-2 (1H)-yl)-2-oxoethyl)amino)-2-(2,6-dioxopiperidin-3-yl)isoindoline-1,3-dione]",10 to 1000
2,"Cc1cccc(C)c1Nc1nn(C)c2nc(Nc3ccc4c(c3)CN(CC3CCN(c5ccc6c(c5)C(=O)N(C5CCC(=O)NC5=O)C6=O)CC3)C4)ncc12 (centres unmarked) [Compound 73, 5-(4-((5-((3-((2,6-Dimethylphenyl)amino)-1-methyl-1H-pyrazolo[3,4-d]pyrimidin-6-yl)amino)isoindolin-2-yl)methyl)piperidin-1-yl)-2-(2,6-dioxopiperidin-3-yl)isoindoline-1,3-dione]",10 to 1000
3,"Cc1cccc(C)c1Nc1nn(C)c2nc(Nc3ccc4c(c3)CN(CC3CCN(c5ccc6c(=O)n(C7CCC(=O)NC7=O)nnc6c5)CC3)C4)ncc12 (centres unmarked) [Compound 74, 3-(7-(4-((5-((3-((2,6-Dimethylphenyl)amino)-1-methyl-1H-pyrazolo[3,4-d]pyrimidin-6-yl)amino)isoindolin-2-yl)methyl)piperidin-1-yl)-4-oxobenzo[d][1,2,3]triazin-3 (4H)-yl)piperidin-2,6-one]",10 to 1000
4,"Cc1cccc(C)c1Nc1nn(C)c2nc(Nc3ccc4c(c3)C(C)N(CC3CCN(c5ccc6c(c5)C(=O)N(C5CCC(=O)NC5=O)C6=O)CC3)CC4)ncc12 (centres unmarked) [Compound 75, 5-(4-((7-((3-((2,6-Dimethylphenyl)amino)-1-methyl-1H-pyrazolo[3,4-d]pyrimidin-6-yl)amino)-1-methyl-3,4-dihydroisoquinolin-2 (1H)-yl)methyl)piperidin-1-yl)-2-(2,6-dioxopiperidin-3-yl)isoindoline-1,3-dione]",10 to 1000
5,"COCCOc1cc(C)c(Nc2nn(C)c3nc(Nc4ccc5c(c4)CN(CC4CCN(c6ccc7c(c6)C(=O)N(C6CCC(=O)NC6=O)C7=O)CC4)CC5)ncc23)c(C)c1 (centres unmarked) [Compound 76, 2-(2,6-Dioxopiperidin-3-yl)-5-(4-((7-((3-((4-(2-methoxyethoxy)-2,6-dimethylphenyl)amino)-1-methyl-1H-pyrazolo[3,4-d]pyrimidin-6-yl)amino)-3,4-dihydroisoquinolin-2 (1H)-yl)methyl)piperidin-1-yl)isoindoline-1,3-dione]",10 to 1000
6,"Cc1cccc(C)c1Nc1nn(C)c2nc(Nc3ccc4c(c3)CN(CC3CCN(C(=O)CNc5ccc6c(c5)CN(C5CCC(=O)NC5=O)C6=O)CC3)CC4)ncc12 (centres unmarked) [Compound 80, 3-(5-((2-(4-((7-((3-((2,6-Dimethylphenyl)amino)-1-methyl-1H-pyrazolo[3,4-d]pyrimidin-6-yl)amino)-3,4-dihydroisoquinolin-2 (1H)-yl)methyl)piperidin-1-yl)-2-oxoethyl)amino)-1-oxoisoindolin-2-yl)piperidin-2,6-one]",0.1 to 10
7,"Cc1cccc(C)c1Nc1nn(C)c2nc(Nc3ccc4c(c3)CN(C(=O)CNc3ccc5c(c3)CN(C3CCC(=O)NC3=O)C5=O)CC4)ncc12 (centres unmarked) [Compound 81, 3-(5-((2-(7-((3-((2,6-Dimethylphenyl)amino)-1-methyl-1H-pyrazolo[3,4-d]pyrimidin-6-yl)amino)-3,4-dihydroisoquinolin-2 (1H)-yl)-2-oxoethyl)amino)-1-oxoisoindolin-2-yl)piperidin-2,6-one]",0.1 to 10
8,"Cn1nc(Nc2c(Cl)cccc2Cl)c2cnc(Nc3ccc4c(c3)CN(CC3CCN(c5ccc6c(c5)C(=O)N(C5CCC(=O)NC5=O)C6=O)CC3)CC4)nc21 (centres unmarked) [Compound 82, 5-(4-((7-((3-((2,6-Dichlorophenyl)amino)-1-methyl-1H-pyrazolo[3,4-d]pyrimidin-6-yl)amino)-3,4-dihydroisoquinolin-2 (1H)-yl)methyl)piperidin-1-yl)-2-(2,6-dioxopiperidin-3-yl)isoindoline-1,3-dione]",0.1 to 10
9,"Cc1ccc(Nc2nn(C)c3nc(Nc4ccc5c(c4)CN(CC4CCN(c6ccc7c(c6)C(=O)N(C6CCC(=O)NC6=O)C7=O)CC4)CC5)ncc23)c(C)c1 (centres unmarked) [Compound 83, 5-(4-((7-((3-((2,4-Dimethylphenyl)amino)-1-methyl-1H-pyrazolo[3,4-d]pyrimidin-6-yl)amino)-3,4-dihydroisoquinolin-2 (1H)-yl)methyl)piperidin-1-yl)-2-(2,6-dioxopiperidin-3-yl)isoindoline-1,3-dione]",10 to 1000
10,"Cc1ccccc1Nc1nn(C)c2nc(Nc3ccc4c(c3)CN(CC3CCN(c5ccc6c(c5)C(=O)N(C5CCC(=O)NC5=O)C6=O)CC3)CC4)ncc12 (centres unmarked) [Compound 84, 2-(2,6-Dioxopiperidin-3-yl)-5-(4-((7-((1-methyl-3-(o-tolylamino)-1H-pyrazolo[3,4-d]pyrimidin-6-yl)amino)-3,4-dihydroisoquinolin-2 (1H)-yl)methyl)piperidin-1-yl)isoindoline-1,3-dione]",0.1 to 10
11,"Cc1cccc(C)c1Nc1nn(C(C)C)c2nc(Nc3ccc4c(c3)CN(CC3CCN(c5ccc6c(c5)C(=O)N(C5CCC(=O)NC5=O)C6=O)CC3)CC4)ncc12 (centres unmarked) [Compound 86, 5-(4-((7-((3-((2,6-Dimethylphenyl)amino)-1-isopropyl-1H-pyrazolo[3,4-d]pyrimidin-6-yl)amino)-3,4-dihydroisoquinolin-2 (1H)-yl)methyl)piperidin-1-yl)-2-(2,6-dioxopiperidin-3-yl)isoindoline-1,3-dione]",0.1 to 10
12,"Cc1cccc(C)c1Nc1nn(C)c2nc(Nc3ccc4c(c3)CN(CC3CCN(CC(=O)Nc5ccc6c(c5)C(=O)N(C5CCC(=O)NC5=O)C6=O)CC3)CC4)ncc12 (centres unmarked) [Compound 90, 2-(4-((7-((3-((2,6-Dimethylphenyl)amino)-1-methyl-1H-pyrazolo[3,4-d]pyrimidin-6-yl)amino)-3,4-dihydroisoquinolin-2 (1H)-yl)methyl)piperidin-1-yl)-N-(2-(2,6-dioxopiperidin-3-yl)-1,3-dioxoisoindolin-5-yl)acetamide]",10 to 1000
13,"Cc1cccc(C)c1Nc1nn(C)c2nc(Nc3ccc4c(c3)CN(CC3CCN(CC(=O)Nc5ccc6c(c5)CN(C5CCC(=O)NC5=O)C6=O)CC3)CC4)ncc12 (centres unmarked) [Compound 91, 2-(4-((7-((3-((2,6-Dimethylphenyl)amino)-1-methyl-1H-pyrazolo[3,4-d]pyrimidin-6-yl)amino)-3,4-dihydroisoquinolin-2 (1H)-yl)methyl)piperidin-1-yl)-N-(2-(2,6-dioxopiperidin-3-yl)-1-oxoisoindolin-5-yl)acetamide]",0.1 to 10
14,"Cc1cccc(C)c1Nc1nn(C)c2nc(Nc3ccc4c(c3)CN(CC3CCN(C(=O)Nc5ccc6c(c5)CN(C5CCC(=O)NC5=O)C6=O)CC3)CC4)ncc12 (centres unmarked) [Compound 92, 4-((7-((3-((2,6-Dimethylphenyl)amino)-1-methyl-1H-pyrazolo[3,4-d]pyrimidin-6-yl)amino)-3,4-dihydroisoquinolin-2 (1H)-yl)methyl)-N-(2-(2,6-dioxopiperidin-3-yl)-1-oxoisoindolin-5-yl)piperidine-1-carboxamide]",0.1 to 10
